Data on 24 molecules can be found in patent US20240400553A1, “AMINE BASED MATRIPTASE 2 INHIBITORS AND USES THEREOF” (Disc Medicine, Inc., priority 2023, published 2024).

The structures appear in SMILES notation.

For the first assay, the target named is T1, Human Recombinant Matriptase 2 (Homo sapiens, UniProt Q8IU80).
T1 construct: made in house
T1 sequence (Q8IU80 1-811): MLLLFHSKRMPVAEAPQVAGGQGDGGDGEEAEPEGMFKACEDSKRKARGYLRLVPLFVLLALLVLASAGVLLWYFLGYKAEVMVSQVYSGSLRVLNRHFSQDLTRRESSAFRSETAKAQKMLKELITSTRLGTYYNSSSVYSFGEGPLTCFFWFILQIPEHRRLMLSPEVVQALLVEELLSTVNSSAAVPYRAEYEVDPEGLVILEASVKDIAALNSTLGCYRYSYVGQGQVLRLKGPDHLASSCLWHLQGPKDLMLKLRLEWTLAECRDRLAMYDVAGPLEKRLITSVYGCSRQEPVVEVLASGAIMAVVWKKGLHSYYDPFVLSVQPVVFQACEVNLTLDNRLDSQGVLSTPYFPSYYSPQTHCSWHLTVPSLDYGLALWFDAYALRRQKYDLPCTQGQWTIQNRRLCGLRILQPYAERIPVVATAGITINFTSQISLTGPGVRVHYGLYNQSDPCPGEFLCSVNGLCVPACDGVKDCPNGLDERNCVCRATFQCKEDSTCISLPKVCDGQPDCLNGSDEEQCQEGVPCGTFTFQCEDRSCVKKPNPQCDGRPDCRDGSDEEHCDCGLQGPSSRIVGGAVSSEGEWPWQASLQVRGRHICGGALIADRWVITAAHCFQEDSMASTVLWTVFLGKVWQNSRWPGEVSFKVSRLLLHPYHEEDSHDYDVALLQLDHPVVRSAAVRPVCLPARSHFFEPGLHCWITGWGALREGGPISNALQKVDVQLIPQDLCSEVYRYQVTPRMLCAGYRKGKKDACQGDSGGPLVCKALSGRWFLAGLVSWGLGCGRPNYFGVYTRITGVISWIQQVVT
Kind of assay: Matriptase 2 inhibition, fluorescence based assay (Method I). The settings on record: Table A; Ki of Matriptase-2, class symbols; read-out: Mat-2 Ki. Format: biochemical. An outline of the steps:
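Fluorogenic readout (Ex 360/Em 480 nm) taken 60 min after adding 62 μM Boc-Gln-Ala-Arg-AMC, following 30-min enzyme–compound preincubation at 25 °C. Conditions: 3.5 nM in-house enzyme, pH 7.5 Tris/NaCl/gelatin buffer, 1% DMSO; percent inhibition versus concentration fitted by variable-slope sigmoidal regression.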
For `CN1CCCC1COC(=O)Nc1cc(Cn2c(C(=O)O)cc3ccc(CN)cc32)c2ccccc2c1` (racemic) [Compound 398, 6-(aminomethyl)-1-{[3-({[(1-methylpyrrolidin-2-yl)methoxy]carbon-yl}amino]naphthalen-1-yl]methyl}-1H-indole-2-carboxylic acid], the Ki was in the range of 500 to 3000 nM.

Still in this assay, the particulars now being: Table A; Ki of Matriptase-2; read-out: Mat-2 Ki.
Consider `NCc1ccc2cc(C(=O)OCCn3cnnn3)n(Cc3cc(NS(=O)(=O)Cc4ccccc4)cc4ccccc34)c2n1` [Compound 86, 2-(1H-1,2,3,4-tetrazol-1-yl)ethyl 6-(amino-methyl)-1-{[3-(phenyl-methanesulfonamido)-naphthalen-1-yl]methyl}-1H-pyrrolo[2,3-b]pyr-idine-2-carboxylate], for which the inhibition constant Ki lay within 100 to 500 nM.

Consider `CN1CCC(COC(=O)c2cc3ccc(CN)nc3n2Cc2cc(NS(=O)(=O)Cc3sccc3F)cc3ccccc23)CC1` [Compound 147, (1-methylpiperidin-4-yl)-methyl 6-(aminomethyl)-1-({3-[(3-fluorothiophen-2-yl)methanesulfon-amido]naphthalen-1-yl}-methyl)-1H-pyrrolo[2,3-b]pyridine-2-carboxylate], for which the Ki was no more than 100 nM.

With `Cn1cncc1COC(=O)c1cc2ccc(CN)nc2n1Cc1cc(NS(=O)(=O)Cc2ccccc2)cc2ccccc12` [Compound 20, (1-methyl-1H-imidazol-5-yl)methyl 6-(amino-methyl)-1-{[3-(phenyl-methanesulfonamido)-naphthalen-1-yl]methyl}-1H-pyrrolo[2,3-b]pyr-idine-2-carboxylate], the Ki was no more than 100 nM.

Regarding `NCc1ccc2cc(C(=O)OC[C@H]3CNCCO3)n(Cc3cc(NS(=O)(=O)Cc4ccccc4)cc4ccccc34)c2n1` [Compound 36], the Ki was no more than 100 nM.

For `CC(CCN(C)C)S(=O)(=O)Nc1cc(Cn2c(C(=O)O)cc3ccc(CN)nc32)c2ccccc2c1` (racemic) [Compound 8, 6-(aminomethyl)-1-((3-((3-(dimethylamino)-1-methylpropyl)sulfonamido)naphthalen-1-yl)methyl)-1H-pyrrolo[2,3-b]pyridine-2-carboxylic acid], the Ki was in the range of 100 to 500 nM.

Turning to `Cn1nccc1COC(=O)c1cc2ccc(CN)nc2n1Cc1cc(NS(=O)(=O)Cc2ccccc2)cc2ccccc12` [Compound 68, (1-methyl-1H-pyrazol-5-yl)methyl 6-(amino-methyl)-1-{[3-(phenyl-methanesulfonamido)-naphthalen-1-yl]meth-yl}-1H-pyrrolo[2,3-b]-pyridine-2-carboxylate], the Ki is no more than 100 nM.

As for `CC(C)N(CCOC(=O)c1cc2ccc(CN)nc2n1Cc1cc(NS(=O)(=O)Cc2ccccc2)cc2ccccc12)C(C)C` [Compound 131, 2-[bis(propan-2-yl)-amino]ethyl 6-(amino-methyl)-1-{[3-(phenyl-methanesulfonamido)-naphthalen-1-yl]meth-yl}-1H-pyrrolo[2,3-b]-pyridine-2-carboxylate], the Ki was in the range of 100 to 500 nM.

On to `CC(C)N1CCC(COC(=O)c2cc3ccc(CN)nc3n2Cc2cc(NS(=O)(=O)Cc3ccccc3)cc3ccccc23)CC1` [Compound 15], for which the inhibition constant (Ki) is no more than 100 nM.

Consider `CN(C)CCOC(=O)c1cc2ccc(CN)nc2n1Cc1cc(NS(=O)(=O)Cc2ccccc2)cc2ccccc12` [Compound 49, 2-(dimethylamino)ethyl 6-(aminomethyl)-1-{[3-(phenylmethanesulfon-amido)naphthalen-1-yl]-methyl}-1H-pyrrolo[2,3-b]pyridine-2-carboxylate], for which the Ki is no more than 100 nM.

In the case of `Cn1cncc1COC(=O)c1cc2ccc(CN)nc2n1Cc1cc(NS(=O)(=O)Cc2ccsc2)cc2ccccc12` [Compound 155, (1-methyl-1H-imidazol-5-yl)methyl 6-(amino-methyl)-1-({3-[(thiophen-3-yl)methanesulfon-amido]naphthalen-1-yl}-methyl)-1H-pyrrolo[2,3-b]pyridine-2-carboxylate], the inhibition constant Ki is no more than 100 nM.

As to `CC(C)N1CCC(OC(=O)c2cc3ccc(CN)nc3n2Cc2cc(NS(=O)(=O)Cc3ccccc3)cc3ccccc23)CC1` [Compound 16, 1-(propan-2-yl)piperidin-4-yl 6-(aminomethyl)-1-{[3-(phenylmethane-sulfonamido)naphthalen-1-yl]methyl}-1H-pyr-rolo[2,3-b]pyridine-2-carboxylate], the Ki was no more than 100 nM.

For the molecule `NCc1ccc2cc(C(=O)OCC3CCOCC3)n(Cc3cc(NS(=O)(=O)Cc4ccccc4)cc4ccccc34)c2n1` [Compound 79, (oxan-4-yl)methyl 6-(aminomethyl)-1-{[3-(phenylmethanesulfon-amido)naphthalen-1-yl]-methyl}-1H-pyrrolo[2,3-b]pyridine-2-carboxylate], the Ki is no more than 100 nM.

For the molecule `C[C@H](OC(=O)c1cc2ccc(CN)nc2n1Cc1cc(NS(=O)(=O)Cc2ccccc2)cc2ccccc12)C1CCN(C)CC1` (racemic) [Compound 48, 1-(1-methylpiperidin-4-ylethyl 6-(aminomethyl)-1-{[3-(phenylmethane-sulfonamido)naphthalen-1-yl]methyl}-1H-pyr-rolo[2,3-b]pyridine-2-carboxylate], the inhibition constant Ki was no more than 100 nM.

The same assay, now with this note: Table A; Ki of Matriptase-2 given as class symbols; read-out: Mat-2 Ki.
Take `COCCN1CCC(CS(=O)(=O)Nc2cc(Cn3c(C(=O)O)cc4ccc(CN)cc43)c3ccccc3c2)CC1` [Compound 390, 6-(aminomethyl)-1-[(3-{[1-(2-methoxyethyl)-piperidin-4-yl]methane-sulfonamido}naphthalen-1-yl)methyl]-1H-indole-2-carboxylic acid]: the Ki was 100 to 500 nM.

As to `CC(C)(C)n1cncc1COC(=O)c1cc2ccc(CN)cc2n1Cc1cc(NS(=O)(=O)Cc2ccsc2)cc2ccccc12` [Compound 385, (1-tert-butyl-1H-imid-azol-5-yl)methyl 6-(aminomethyl)-1-({3-[(thiophen-3-yl)methane-sulfonamido]naphthalen-1-yl}methyl)-1H-indole-2-carboxylate], the Ki was 100 to 500 nM.

Consider `CC(C)[C@H]1CCCN1C(=O)Nc1cc(Cn2c(C(=O)O)cc3ccc(CN)nc32)c2ccccc2c1` [Compound 299, 6-(aminomethyl)-1-[(3-{[(2R)-2-(propan-2-yl)-pyrrolidine-1-carbonyl]-amino}naphthalen-1-yl)-methyl]-1H-pyrrolo[2,3-b]pyridine-2-carboxylic acid], for which the Ki was 500 to 3000 nM.

On to `CNCCOC(=O)c1cc2ccc(CN)nc2n1Cc1cc(NS(=O)(=O)CC2CCNCC2)cc2ccccc12` [Compound 278, 2-(methylamino)ethyl 6-(aminomethyl)-1-({3-[(piperidin-4-yl)methane-sulfonamido]naphthalen-1-yl}methyl)-1H-pyr-rolo[2,3-b]pyridine-2-carboxylate], for which the Ki lay within 500 to 3000 nM.

As for `CN1CCC(COC(=O)c2cc3ccc(CN)nc3n2Cc2cc(NS(=O)(=O)Cc3ccccc3)cc3c2CCCC3)CC1` [Compound 286, (1-methylpiperidin-4-yl)methyl 6-(aminomethyl)-1-((3-((phenylmethyl)sulfonamido)-5,6,7,8-tetrahydronaphthalen-1-yl)methyl)-1H-pyrrolo[2,3-b]pyridine-2-carboxylate], the Ki is no more than 100 nM.

On to `CC[C@H]1CCCCN1C(=O)Nc1cc(Cn2c(C(=O)O)cc3ccc(CN)nc32)c2ccccc2c1` (racemic) [Compound 306, rac-6-(aminomethyl)-1-[(3-{[(2R)-2-ethylpiper-idine-1-carbonyl]amino}-naphthalen-1-yl)methyl]-1H-pyrrolo[2,3-b]pyr-idine-2-carboxylic acid], for which the Ki fell in the range of 500 to 3000 nM.

Take `NCc1ccc2cc(C(=O)O)n(Cc3cc(NS(=O)(=O)Cc4ccno4)cc4ccccc34)c2n1` [Compound 233, 6-(aminomethyl)-1-({3-[(1,2-oxazol-5-yl)-methanesulfonamido]-naphthalen-1-yl}methyl)-1H-pyrrolo[2,3-b]pyr-idine-2-carboxylic acid]: the Ki lay within 100 to 500 nM.

`CN1CCC[C@H]1CCOC(=O)Nc1cc(Cn2c(C(=O)O)cc3ccc(CN)nc32)c2ccccc2c1` [Compound 289, (S)-6-(aminomethyl)-1-((3-(((2-(1-methylpyrrolidin-2-yl)ethoxy)carbonyl)amino)naphthalen-1-yl)methyl)-1H-pyrrolo[2,3-b]pyridine-2-carboxylic acid]: the Ki fell in the range of 100 to 500 nM.

The assay is the same for the next values; noted with them: Table B; Human Recombinant Matriptase 2, 3.5 nM enzyme, 62 μM substrate, 30 mins preincubation; read-out: Mean Ki.
For the molecule `CN1CCC(CCCOC(=O)c2cc3ccc(CN)nc3n2Cc2cc(NS(=O)(=O)Cc3ccccc3)cc3ccccc23)CC1` [Compound 2.23], the inhibition constant Ki was no more than 100 nM.

On to `NCc1ccc2cc(C(=O)OCC3CNC(=O)C3)n(Cc3cc(NS(=O)(=O)Cc4ccsc4)cc4ccccc34)c2n1` (stereo not drawn) [Compound 2.13], for which the inhibitory constant (Ki) is no more than 100 nM.

A word on the Ki: it is a dissociation constant, usually derived from enzyme kinetics or from competition with a known ligand.
